According to ChEMBL document CHEMBL1201862, “PubChem BioAssay data set” (2004):
Where “and” joins values, the source holds several entries; their conditions need not be identical. Identical values can stand only once.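 All cell lines were grown in 96-well plates and treated with compound for 48 hours. Abbreviation: GI50, concentration required for 50% inhibition of growth.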 Calls of active or inactive are those of the source. Rule as the data show it: active = GI50 up to about 1.1 µM and inactive = higher.

Assays:
Experiment in all cases: inhibition of tumour cell growth, NCI panel, 48 h
HOP-62 = system: HOP-62
OVCAR-8 = system: OVCAR-8
U-251 = system: U-251
T47D = system: T47D
RPMI-8226 = system: RPMI-8226
SF-268 = system: SF-268
UACC-62 = system: UACC-62
NCI-H522 = system: NCI-H522
786-0 = system: 786-0
SF-295 = system: SF-295
OVCAR-3 = system: OVCAR-3
BT-549 = system: BT-549
MDA-MB-435 = system: MDA-MB-435
IGROV-1 = system: IGROV-1
SK-MEL-5 = system: SK-MEL-5
NCI/ADR-RES = system: NCI/ADR-RES
M14 = system: M14
NCI-H23 = system: NCI-H23
HCC 2998 = system: HCC 2998
NCI-H226 = system: NCI-H226

Measured: GI50

Cc1ccc(Nc2nc(=O)c3c([nH]c4ccccc43)s2)cc1
inactive: HOP-62 10.2 µM | OVCAR-8 15.4 µM | U-251 12.8 µM | T47D 15.4 µM | RPMI-8226 4.21 µM | SF-268 16.7 µM | UACC-62 3.84 µM | NCI-H522 14.6 µM | 786-0 14.5 µM | SF-295 11.8 µM | OVCAR-3 14 µM | BT-549 18.2 µM | MDA-MB-435 2.48 µM | IGROV-1 13.7 µM | SK-MEL-5 8.32 µM | NCI/ADR-RES 14.2 µM | M14 6.59 µM

O=c1oc2c(Cl)cc(Cl)cc2cc1-c1cn2c(n1)sc1ccccc12
inactive: HOP-62 53.5 µM | OVCAR-8 87.1 µM | U-251 > 100 µM | T47D 49.8 µM | RPMI-8226 24.7 µM | SF-268 65.8 µM | UACC-62 35.9 µM | NCI-H522 30.1 µM | 786-0 32.9 µM | SF-295 59.2 µM | OVCAR-3 31.4 µM | BT-549 28.6 µM | NCI-H23 95.5 µM | HCC 2998 24.5 µM | MDA-MB-435 38.4 µM | IGROV-1 44.1 µM | SK-MEL-5 39.2 µM | NCI/ADR-RES > 100 µM | M14 78.7 µM

O=[N+]([O-])c1ccc2c(c1)c(S(=O)(=O)O)cc1nonc12
inactive: HOP-62 > 100 µM | OVCAR-8 > 100 µM | U-251 > 100 µM | T47D > 100 µM | RPMI-8226 > 100 µM | SF-268 > 100 µM | UACC-62 > 100 µM | NCI-H226 > 100 µM | NCI-H522 > 100 µM | 786-0 > 100 µM | SF-295 > 100 µM | OVCAR-3 > 100 µM | BT-549 > 100 µM | NCI-H23 > 100 µM | MDA-MB-435 > 100 µM | IGROV-1 > 100 µM | SK-MEL-5 > 100 µM | NCI/ADR-RES > 100 µM | M14 > 100 µM

O=C1Nc2ccccc2/C1=N/NC(=S)Nc1ccc([N+](=O)[O-])cc1
inactive: HOP-62 4.62 µM | OVCAR-8 1.77 µM | U-251 5.85 µM | T47D 10.4 µM | RPMI-8226 13.5 µM | SF-268 13 µM | UACC-62 8.47 µM | NCI-H522 12.5 µM | 786-0 4.81 µM | SF-295 6.64 µM | OVCAR-3 13.4 µM | BT-549 14.4 µM | NCI-H23 13.8 µM | HCC 2998 11.3 µM | MDA-MB-435 6.19 µM | IGROV-1 10.7 µM | SK-MEL-5 10.4 µM | NCI/ADR-RES 3.01 µM | M14 6.62 µM

CSCCCNC(=O)c1csc(-c2csc(C(CNC(=O)OC(C)(C)C)CNC(=O)OC(C)(C)C)n2)n1
inactive: HOP-62 33.7 µM | OVCAR-8 33.9 µM | U-251 25.6 µM | T47D 29.2 µM | RPMI-8226 14.3 µM | SF-268 76.2 µM | UACC-62 18.1 µM | NCI-H226 42.5 µM | NCI-H522 18.6 µM | 786-0 50.4 µM | SF-295 38.6 µM | OVCAR-3 60 µM | BT-549 34.5 µM | NCI-H23 36 µM | MDA-MB-435 45 µM | IGROV-1 33.3 µM | SK-MEL-5 26.1 µM | NCI/ADR-RES 24.8 µM | M14 47 µM

CCC(=O)N(c1ccccc1)C(C)CN1CCC(O)(c2ccccc2)CC1 (stereo not drawn)
inactive: HOP-62 > 100 µM | OVCAR-8 > 100 µM | U-251 > 100 µM | T47D > 100 µM | RPMI-8226 > 100 µM | SF-268 > 100 µM | UACC-62 > 100 µM | NCI-H226 > 100 µM | NCI-H522 > 100 µM | 786-0 > 100 µM | SF-295 > 100 µM | OVCAR-3 > 100 µM | BT-549 > 100 µM | NCI-H23 > 100 µM | MDA-MB-435 > 100 µM | IGROV-1 > 100 µM | SK-MEL-5 > 100 µM | NCI/ADR-RES > 100 µM | M14 > 100 µM

O=C(/C=C/c1ccccc1)c1ccccn1
inactive: OVCAR-8 17.6 µM and 25.1 µM | U-251 14.3 µM and 17.9 µM | T47D 23.8 µM and 13 µM | UACC-62 16.6 µM and 20.6 µM | NCI-H226 16.6 µM and 26.7 µM | NCI-H522 17.8 µM and 15.1 µM | 786-0 12.3 µM and 17.2 µM | SF-295 24 µM and 18.4 µM | OVCAR-3 12.7 µM and 16.4 µM | BT-549 24 µM and 18.8 µM | NCI-H23 17.9 µM and 17.5 µM | HCC 2998 13.8 µM and 19.3 µM | MDA-MB-435 26.5 µM and 18.9 µM | IGROV-1 10.5 µM and 17.4 µM | SK-MEL-5 14 µM and 26.1 µM | NCI/ADR-RES 22.2 µM and 28.4 µM | M14 14.5 µM

CO[C@]12S[C@@H]3CCCC[C@@]31C(C)(C)C(=O)N2c1ccccc1
inactive: HOP-62 16.7 µM | OVCAR-8 30.1 µM | U-251 26.6 µM | T47D 30.7 µM | RPMI-8226 24.7 µM | SF-268 37.9 µM | UACC-62 49.8 µM | NCI-H522 27.6 µM | 786-0 43.2 µM | SF-295 16 µM | OVCAR-3 15.2 µM | BT-549 27.4 µM | NCI-H23 28.8 µM | HCC 2998 51.2 µM | MDA-MB-435 33.7 µM | IGROV-1 46.2 µM | SK-MEL-5 20.5 µM | NCI/ADR-RES 23 µM | M14 70 µM

O=S(=O)(O)c1cc(S(=O)(=O)O)c2cc(/N=N/c3c(O)ccc4ccccc34)ccc2c1
inactive: HOP-62 > 100 µM | OVCAR-8 > 100 µM | U-251 > 100 µM | T47D > 100 µM | RPMI-8226 > 100 µM | SF-268 > 100 µM | UACC-62 > 100 µM | NCI-H226 > 100 µM | NCI-H522 > 100 µM | 786-0 > 100 µM | SF-295 > 100 µM | OVCAR-3 > 100 µM | BT-549 > 100 µM | NCI-H23 > 100 µM | MDA-MB-435 > 100 µM | IGROV-1 > 100 µM | SK-MEL-5 > 100 µM | NCI/ADR-RES > 100 µM | M14 > 100 µM

COc1ccc(-n2c(CCCC(=O)O)nc3c2C(=O)c2ccccc2C3=O)cc1
inactive: OVCAR-8 51.3 µM | U-251 > 100 µM | T47D 88.3 µM | RPMI-8226 36.3 µM | SF-268 46.7 µM | UACC-62 23.4 µM | NCI-H522 25.8 µM | 786-0 > 100 µM | SF-295 43 µM | OVCAR-3 33.3 µM | BT-549 8.79 µM | NCI-H23 44.1 µM | HCC 2998 84.7 µM | MDA-MB-435 26.4 µM | IGROV-1 79.3 µM | NCI/ADR-RES > 100 µM | M14 15.5 µM

NC12CC3CC4C1CC1CC2C(C3)C4(N)C1
inactive: HOP-62 > 100 µM | OVCAR-8 > 100 µM | U-251 > 100 µM | T47D > 100 µM | SF-268 > 100 µM | UACC-62 > 100 µM | NCI-H226 > 100 µM | NCI-H522 > 100 µM | 786-0 > 100 µM | SF-295 > 100 µM | OVCAR-3 > 100 µM | BT-549 > 100 µM | NCI-H23 > 100 µM | MDA-MB-435 > 100 µM | IGROV-1 > 100 µM | SK-MEL-5 > 100 µM | NCI/ADR-RES > 100 µM | M14 > 100 µM

COC1=CC(=O)C2=C(C[C@@]3(C)C(=C2)C(CO)=CC[C@H]3O)C1=O
inactive: HOP-62 25.2 µM | OVCAR-8 18.2 µM | U-251 21 µM | T47D 24.6 µM | RPMI-8226 18.4 µM | SF-268 18.7 µM | UACC-62 17.6 µM | NCI-H226 14 µM | 786-0 20.7 µM | SF-295 22 µM | OVCAR-3 24.9 µM | BT-549 19.2 µM | NCI-H23 20.4 µM | HCC 2998 36.5 µM | MDA-MB-435 20.7 µM | IGROV-1 14.6 µM | SK-MEL-5 17.4 µM | NCI/ADR-RES 23.5 µM | M14 21.8 µM

Cc1ccc2c(=O)cc(Cc3csc4ccccc34)[nH]c2n1
inactive: HOP-62 59.2 µM | OVCAR-8 36 µM | U-251 69.8 µM | T47D 19 µM | RPMI-8226 22.3 µM | SF-268 21.3 µM | UACC-62 27 µM | NCI-H226 18.1 µM | NCI-H522 13.6 µM | 786-0 46.2 µM | SF-295 26 µM | OVCAR-3 28.8 µM | BT-549 23.3 µM | NCI-H23 19.3 µM | MDA-MB-435 32.6 µM | IGROV-1 11.7 µM | SK-MEL-5 16.4 µM | NCI/ADR-RES 19.8 µM | M14 32 µM

COc1ccc(/C=C/C(=O)C(C)(C)Br)cc1
inactive: HOP-62 6.3 µM | OVCAR-8 3.04 µM | U-251 13.7 µM | T47D 20.8 µM | RPMI-8226 3.42 µM | SF-268 15.2 µM | UACC-62 12.7 µM | NCI-H522 1.22 µM | 786-0 3.48 µM | SF-295 17.9 µM | OVCAR-3 17.5 µM | BT-549 1.92 µM | NCI-H23 2.25 µM | MDA-MB-435 11.5 µM | IGROV-1 1.71 µM | SK-MEL-5 14.7 µM | NCI/ADR-RES 24 µM | M14 1.56 µM
